Like-named read-outs stand apart in the source and are kept apart here.
Columns and labels:
[1] = Cytotoxicity, EZ4U Cell Proliferation and Cytotoxicity Assay, HeLa; assay type: cell-based; conditions: human, HeLa cells, cervical cancer HeLa
Method: (§1) The cytotoxicity of compounds was investigated using HeLa (cervical cancer), SW837 and HCT-116 (colon cancers) cell lines, and the results are shown in Table 1 and Figure S2 in the Supplementary Materials. […] In general, the HeLa cell line was less sensitive to the inhibitors than the HCT-116 and SW837 cells.
(§2) The human cervical cancer HeLa cells were grown in Iscove’s modified Dulbecco’s medium (IMDM) with 40 μg/mL gentamicin, 50 IU/mL penicillin, 50 μg/mL streptomycin (MP Biomedicals), and 10% of fetal bovine serum (Biolot) in a 5% CO2 atmosphere. Human colon adenocarcinoma HCT-116, rectum adenocarcinoma SW837, and human embryo kidney HEK293A cell lines were cultured in DMEM medium (Invitrogen) supplemented with 10% fetal bovine serum (FBS) (Invitrogen), penicillin (100 units/mL), and streptomycin (100 μg/mL), at 37 °C, 5% CO2 in a humid atmosphere. After the formation of a 30–50% monolayer, the tested compounds were added to the medium. The volume of the added reagents was 1/100 of the total volume of the culture medium, and the amount of DMSO was 1% of the final volume. Control cells were grown in the presence of 1% DMSO. The cell culture was monitored for 3 days.
(§3) The cytotoxicity of the compounds to HeLa and HEK293A cell lines was examined using the EZ4U Cell Proliferation and Cytotoxicity Assay (Biomedica, Austria), according to the manufacturer’s protocols.

[2] = Cytotoxicity, MTT test, HCT-116; assay type: cell-based; conditions: human, HCT-116 cells; colorectal HCT-116, 72 h MTT
Method: as §1, §2
(§4) The medium was removed, and the dark blue crystals of formazan were dissolved in 100 μL of isopropanol. The absorbance at 570 nm (peak) and 620 nm (baseline) was determined using a microplate reader Multiscan FC (Thermo Fisher Scientific Corporation). All concentrations were performed in triplicate. The values are given as mean ± standard deviation (S.D.) values, and all measurements were repeated three times.

[3] = Cytotoxicity, MTT test, SW837; assay type: cell-based; conditions: human, SW837 cells; colorectal SW837, 72 h MTT
Method: as §1, §2, §4

HeLa cells = test: Sensitizing of HeLa cells to topotecan by Tdp1 inhibitors; assay type: cell-based, human; conditions: for HeLa CC50 of topotecan with Tdp1 inhibitor: human, 3 days, 5 µM
Method: (§5) The potential for sensitizing the cancer cell lines to topotecan using the Tdp1 inhibitors was investigated using the MTT assay. Neutralizing the enzymatic activity of Tdp1 by blocking access to its catalytic site using a small molecule should sensitize the cytotoxic potential of topotecan, since the complex of Top1 with DNA cannot be unraveled. […] Nontoxic concentrations of the adamantane derivatives (5 μM) were used for the HeLa cell line; the dose response for topotecan was measured and the corresponding CC50 values were derived, and the results are shown in Figure 4 for 20c and in Table 2 for all the derivatives.
(§6) For HeLa cells, increased cytotoxicity was seen when the adamantanes and topotecan were combined. […] The combination index (CI) for different concentrations of topotecan and 20c at 5 μM was in the range 0.49–0.82, and at 10 μM of 20c, it was 0.23–0.78. This indicates a synergistic effect of topotecan and 20c. The CI values were calculated with the CompuSyn version 1.0 software. For the HCT-116 cells, the synergistic effects of the compounds were different than for the HeLa cells. […] The CI plot at a different fraction affected (Fa) was determined for topotecan (5, 15, 150, 500 and 1500 nM) and 20g (1, 3, 10, 20 μM). The CI values for most of the combinations correspond to a synergistic effect (CI < 1, see Figure S3 in the Supplementary Materials).
as §2, §3

HCT-116 cells = test: Sensitizing of HCT-116 cells to topotecan by Tdp1 inhibitors; assay type: cell-based, human; conditions: for HCT116 CC50 of topotecan with Tdp1 inhibitor: human, 72 h
Method: as §5, §6, §2, §4

[4] = Solubility remark during biological testing; assay type: physicochemical; conditions: remark in words
Tdp1 [5] = target: T1, Tdp1 (Homo sapiens, UniProt Q9NUW8); test: Tdp1 cleavage activity, fluorophore quencher-coupled DNA-biosensor, real-time; assay type: biochemical; design: inferred from the pET 16B vector and Ni-chelating resin purification; made in house; conditions: recombinant Tdp1 1.5 nM, 50 nM biosensor; read-out: IC50 (Tdp1 activity inhibition at 50%)
T1 sequence (Q9NUW8 whole entry): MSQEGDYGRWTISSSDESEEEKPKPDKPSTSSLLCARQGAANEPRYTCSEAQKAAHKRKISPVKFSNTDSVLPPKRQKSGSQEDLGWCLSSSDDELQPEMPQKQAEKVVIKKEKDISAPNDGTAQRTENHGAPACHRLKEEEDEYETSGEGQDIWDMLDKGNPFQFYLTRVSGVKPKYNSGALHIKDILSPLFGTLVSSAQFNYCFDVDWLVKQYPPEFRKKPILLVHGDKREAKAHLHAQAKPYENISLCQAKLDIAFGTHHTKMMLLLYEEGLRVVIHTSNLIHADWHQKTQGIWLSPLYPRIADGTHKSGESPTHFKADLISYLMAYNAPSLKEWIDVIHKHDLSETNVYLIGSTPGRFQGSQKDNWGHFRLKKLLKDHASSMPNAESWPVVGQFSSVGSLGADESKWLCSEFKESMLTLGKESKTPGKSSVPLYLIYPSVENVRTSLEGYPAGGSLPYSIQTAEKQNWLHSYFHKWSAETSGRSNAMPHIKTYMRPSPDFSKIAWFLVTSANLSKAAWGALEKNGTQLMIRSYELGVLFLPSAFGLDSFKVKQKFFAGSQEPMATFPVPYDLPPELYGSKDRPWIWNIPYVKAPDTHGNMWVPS
Method: The recombinant Tdp1 was purified to homogeneity by chromatography on Ni-chelating resin and phosphocellulose P11 as described, using plasmid pET 16B-Tdp1, kindly provided by Dr. K.W. Caldecott (University of Sussex, United Kingdom). Tdp1 activity was detected as described in the work. Briefly, we measured the fluorescence intensity after quencher removal from a fluorophore quencher–coupled DNA oligonucleotide catalyzed by Tdp1. The reaction was carried out at different concentrations of inhibitors. The control samples contained 1% DMSO. The reaction mixtures contained Tdp1 buffer (50 mM Tris-HCl pH 8.0, 50 mM NaCl, and 7 mM β-mercaptoethanol), 50 nM biosensor, and an inhibitor being tested. The reaction was started by the addition of purified Tdp1 (1.5 nM). The biosensor (5′-[FAM] AAC GTC AGGGTC TTC C [BHQ]-3′) was synthesized in the Laboratory of Biomedical Chemistry at the Institute of Chemical Biology and Fundamental Medicine (Novosibirsk, Russia).
The reactions were incubated on a POLARstar OPTIMA fluorimeter (BMG LAB-TECH, GmbH) to measure fluorescence every 55 s (ex. 485 nm/em. 520 nm) during the linear phase (here, data are from minute 0 to minute 8). The values of IC50 were determined using a six-point concentration response curve in a minimum of three independent experiments, and were calculated using MARS Data Analysis 2.0 (BMG LABTECH).

Tdp1 [6] = target: T1, Tdp1; design: inferred from the pET 16B vector and Ni-chelating resin purification; made in house; conditions: cited from earlier work
HEK293A cells = test: Cytotoxicity on noncancerous cell line HEK293A (EZ4U); assay type: cell-based, human; conditions: concentrations up to 30 μM; data not shown
Method: as §1, §2, §3

IC50 (Tdp1 [5]) [µM] | Compound | CC50 at 3 days [1] [µM] | CC50 at 72 h [2] [µM] | CC50 at 72 h [3] [µM] | HeLa CC50 of topotecan with Tdp1 inhibitor (HeLa cells) [µM] | other results
2.59 ± 0.48 | CC(C)=CCCC(C)CC(=O)Nc1nnc(C23CC4CC(CC(C4)C2)C3)s1 (stereo not shown) [25b, N-(5-(Adamantan-1-yl)-1,3,4-thiadiazol-2-yl)-3,7-dimethyloct-6-enamide] | > 100 | 66 ± 6 | 83 ± 8 | 2.9 | HCT116 CC50 of topotecan with Tdp1 inhibitor (HCT-116 cells; 20 µM): 611.9 (20) nM; solubility [4]: poor solubility
1.5 ± 0.3 | CC(C)=CCC[C@H](C)CCSc1n[nH]c(C23CC4CC(CC(C4)C2)C3)n1 [20b, 5-(Adamantan-1-yl)-3-(((S)-3,7-dimethyloct-6-en-1-yl)thio)-1H-1,2,4-triazole] | > 100 | > 100 | 41 ± 4 | – | HCT116 CC50 of topotecan with Tdp1 inhibitor (HCT-116 cells; 20 µM): 575.3 (20) nM
– | CC(C)=CCCC(C)CC1N2CC3(C)CN1CC(C)(C2)C3=O (stereo not shown) [compound 3] | – | – | – | – | IC50 (Tdp1 [6]): ~15 µM
– | C[C@@H]1CC[C@@H]2[C@@H](C1)O[C@@H](c1ccc(NC(=O)C34CC5CC(CC(C5)C3)C4)s1)C[C@]2(C)O [compound 13] | – | – | – | – | IC50 (Tdp1 [6]): 1.2 µM
> 15 | CC(C)CCCC(C)CC(=O)NC12CC3CC(CC(C3)C1)C2 (stereo not shown) [26a, N-(Adamantan-1-yl)-3,7-dimethyloctanamide] | – | – | – | – | melting point: 97.9 °C
0.57 ± 0.14 | CC1(C)[C@H]2CC=C(CCSc3n[nH]c(C45CC6CC(CC(C6)C4)C5)n3)[C@@H]1C2 [20g, 5-(Adamantan-1-yl)-3-((2-((1R,5S)-6,6-dimethylbicyclo[3.1.1]hept-2-en-2-yl)ethyl)thio)-1H-1,2,4-triazole] | 74 ± 17 | 34 ± 6 | 40 ± 4 | 2.6 | effect on cell viability, HEK293A (HEK293A cells): no effect on cell viability; combination index (CI) with topotecan (HCT-116 cells; HCT-116, topotecan 5-1500 nM, inhibitor 1, 3, 10, 20 μM, most of the combinations): < 1; HCT116 CC50 of topotecan with Tdp1 inhibitor (HCT-116 cells; 20 µM): 235.8 (20) nM
7.5 ± 1.8 | CC1(C)[C@H]2CC=C(CSc3n[nH]c(C45CC6CC(CC(C6)C4)C5)n3)[C@@H]1C2 [20f, 5-(Adamantan-1-yl)-3-((((1R,5S)-6,6-dimethylbicyclo[3.1.1]hept-2-en-2-yl)methyl)thio)-1H-1,2,4-triazole] | 15 ± 2 | 54 ± 5 | 46 ± 6 | 2.8 | HCT116 CC50 of topotecan with Tdp1 inhibitor (HCT-116 cells; 25 µM): 715.0 (25) nM
0.35 ± 0.05 | CC(C)CCCC(C)CC(=O)Nc1nnc(C23CC4CC(CC(C4)C2)C3)s1 (stereo not shown) [25a, N-(5-(Adamantan-1-yl)-1,3,4-thiadiazol-2-yl)-3,7-dimethyloctanamide] | > 100 | > 100 | > 100 | 4.9 | HCT116 CC50 of topotecan with Tdp1 inhibitor (HCT-116 cells; 45 µM): 455.7 (45) nM
6.2 ± 2.2 | C=C(C)[C@@H]1CC=C(CSc2n[nH]c(C34CC5CC(CC(C5)C3)C4)n2)CC1 [20e, 5-(Adamantan-1-yl)-3-((((S)-4-(prop-1-en-2-yl)cyclohex-1-en-1-yl)methyl)thio)-1H-1,2,4-triazole] | 24 ± 16 | 15 ± 5 | 40 ± 4 | – | HCT116 CC50 of topotecan with Tdp1 inhibitor (HCT-116 cells; 15 µM): 392.0 (15) nM
0.54 ± 0.09 | CC(C)CCCC(C)CCSc1n[nH]c(C23CC4CC(CC(C4)C2)C3)n1 (stereo not shown) [20a, 5-(Adamantan-1-yl)-3-((3,7-dimethyloctyl)thio)-1H-1,2,4-triazole] | 85 ± 23 | 27 ± 6 | 52 ± 6 | 4.5 | HCT116 CC50 of topotecan with Tdp1 inhibitor (HCT-116 cells; 20 µM): 650.0 (20) nM
> 15 | CC1(C)[C@H]2CC=C(CCNC(=O)C34CC5CC(CC(C5)C3)C4)[C@@H]1C2 [28g, reference compound] | – | – | – | – | –
– | C[C@@H]1CC[C@@H]2[C@@H](C1)O[C@@H](c1ccc(NC(=O)c3cccc4ccccc34)s1)C[C@]2(C)O [compound 5] | – | – | – | – | IC50 (Tdp1 [6]): 2 µM
0.45 ± 0.09 | CC1(C)[C@H]2CC=C(C(=O)Nc3nnc(C45CC6CC(CC(C6)C4)C5)s3)[C@@H]1C2 [25c, (1R,5S)-N-(5-(Adamantan-1-yl)-1,3,4-thiadiazol-2-yl)-6,6-dimethylbicyclo[3.1.1]hept-2-ene-2-carboxamide] | > 100 | > 100 | > 100 | 3.6 | HCT116 CC50 of topotecan with Tdp1 inhibitor (HCT-116 cells; 25 µM): 486.0 (25) nM
5.6 ± 0.6 | CC(C)=CCC/C(C)=C\CSc1n[nH]c(C23CC4CC(CC(C4)C2)C3)n1 [20d, 5-(Adamantan-1-yl)-3-(((Z)-3,7-dimethylocta-2,6-dien-1-yl)thio)-1H-1,2,4-triazole] | 31 ± 11 | 20 ± 9 | 17 ± 5 | 5.4 | HCT116 CC50 of topotecan with Tdp1 inhibitor (HCT-116 cells; 15 µM): 689.0 (15) nM
> 15 | CC1(C)[C@H]2CC=C(C(=O)NC34CC5CC(CC(C5)C3)C4)[C@@H]1C2 [26c, reference compound] | – | – | – | – | –
– | C=C(C)[C@@H]1CC=C(C(=O)Nc2nnc(C34CC5CC(CC(C5)C3)C4)s2)CC1 [25d, (S)-N-(5-(adamantan-1-yl)-1,3,4-thiadiazol-2-yl)-4-(prop-1-en-2-yl)cyclohex-1-ene-1-carboxamide] | – | – | – | – | solubility [4]: poor solubility; melting point: 265.6 °C
– | CC[C@@]1(O)C(=O)OCc2c1cc1n(c2=O)Cc2cc3c(CN(C)C)c(O)ccc3nc2-1 [Topotecan, topotecan, reference compound] | – | – | – | – | CC50 (HeLa cells; Homo sapiens, HeLa, topotecan alone): 6 µM; CC50 (HCT-116 cells; Homo sapiens, HCT-116, topotecan alone, read-out: HCT116 CC50 of topotecan): 0.715 µM
> 15 | CC(C)CCCC(C)CCNC(=O)C12CC3CC(CC(C3)C1)C2 (stereo not shown) [28a, reference compound] | – | – | – | – | –
